Literature values, collected in patent publication US4942167A, “Pharmaceutical compositions of piroxicam in aqueous solutions and process for their preparation” (Chiesi Farmaceutici S.p.A., priority 1988, dated 1990).

Conditions: in words, background

CN1C(C(=O)Nc2ccccn2)=C(O)c2ccccc2S1(=O)=O [piroxicam, N-(2-pyridyl)-2-methyl-4-hydroxy-2H-1,2-benzothiazine-3-carboxyamido-1,1-dioxide]
water-solubility: poor
